Source: ChEMBL document CHEMBL1123652, “Optimization and in vivo evaluations of a series of small, potent, and specific renin inhibitors containing a novel Leu-Val replacement” (J Med Chem, 1987)

What was measured:
Renin = biological target: T1, Renin (Homo sapiens, UniProt P00797); assay: Evaluated in vitro for inhibitory potency against renin.
T1 sequence (P00797 whole entry): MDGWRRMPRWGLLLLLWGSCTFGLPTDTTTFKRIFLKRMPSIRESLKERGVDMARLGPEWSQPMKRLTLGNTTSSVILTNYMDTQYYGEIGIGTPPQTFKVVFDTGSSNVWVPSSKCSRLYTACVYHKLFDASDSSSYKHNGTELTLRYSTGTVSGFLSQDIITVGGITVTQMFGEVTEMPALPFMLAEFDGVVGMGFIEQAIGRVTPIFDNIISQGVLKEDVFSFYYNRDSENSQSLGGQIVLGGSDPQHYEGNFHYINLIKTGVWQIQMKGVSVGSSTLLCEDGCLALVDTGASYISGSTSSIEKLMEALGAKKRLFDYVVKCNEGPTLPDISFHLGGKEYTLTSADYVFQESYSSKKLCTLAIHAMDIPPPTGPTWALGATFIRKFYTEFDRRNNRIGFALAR

Pepsin A (Sus scrofa) [1] = biological target: Pepsin A (Sus scrofa) (UniProt P00791); assay: Evaluated for the percentage of inhibition of porcine pepsin at E-5M concentration
Sequence of Pepsin A (Sus scrofa) (P00791 60-385 limits assumed): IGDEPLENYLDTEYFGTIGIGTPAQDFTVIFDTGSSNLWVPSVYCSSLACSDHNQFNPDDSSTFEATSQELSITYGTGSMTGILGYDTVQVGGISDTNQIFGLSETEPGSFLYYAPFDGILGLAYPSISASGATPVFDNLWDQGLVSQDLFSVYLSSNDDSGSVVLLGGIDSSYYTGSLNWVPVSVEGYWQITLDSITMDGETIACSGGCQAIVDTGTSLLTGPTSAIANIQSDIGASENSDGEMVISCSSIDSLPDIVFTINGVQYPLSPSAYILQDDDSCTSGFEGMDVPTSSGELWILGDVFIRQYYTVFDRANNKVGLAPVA

Cathepsin D (Bos taurus) [2] = biological target: T2, Cathepsin D (Bos taurus) (UniProt P80209); assay: Evaluated for the percentage of inhibition of bovine cathepsin D at E-5M concentration
T2 sequence (whole entry): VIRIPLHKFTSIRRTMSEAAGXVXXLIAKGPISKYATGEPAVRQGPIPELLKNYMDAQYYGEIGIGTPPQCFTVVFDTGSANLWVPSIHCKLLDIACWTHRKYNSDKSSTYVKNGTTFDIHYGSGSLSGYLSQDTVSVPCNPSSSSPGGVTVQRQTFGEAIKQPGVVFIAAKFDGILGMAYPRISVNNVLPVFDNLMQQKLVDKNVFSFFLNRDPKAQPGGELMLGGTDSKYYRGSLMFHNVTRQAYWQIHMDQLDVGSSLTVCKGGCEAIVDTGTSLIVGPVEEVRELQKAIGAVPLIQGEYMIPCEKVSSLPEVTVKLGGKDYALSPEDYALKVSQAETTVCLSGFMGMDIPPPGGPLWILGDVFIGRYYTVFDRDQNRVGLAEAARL

Renin (Homo sapiens) [3] = biological target: T3, Renin (Homo sapiens) (UniProt P00797); assay: Evaluated in vitro for inhibitory potency against renin at 10e-6 M
T3 sequence (whole entry): T1 sequence (P00797 whole entry)

Cathepsin D (Bos taurus) [4] = biological target: T2, Cathepsin D (Bos taurus); assay: Compound is evaluated for the percentage of inhibition of […] 10e-5 M concentration in, bovine cathepsin D
Pepsin A (Sus scrofa) [5] = biological target: Pepsin A (Sus scrofa) (UniProt P00791); assay: Compound is evaluated for the percentage of inhibition of […] 10 e-5M concentration in porcine pepsin
Renin (Homo sapiens) [6] = biological target: T3, Renin (Homo sapiens); assay: Evaluated in vitro for inhibitory potency against renin at 10e-5 M

## CC(C)C[C@H](NC(=O)[C@H](Cc1ccccc1)NC(=O)OC(C)(C)C)C(=O)N[C@@H](CC1CCCCC1)[C@@H](O)CS(=O)(=O)C(C)C
Renin
  IC50: 4 nM

## COc1ccc(C[C@H](NC(=O)OC(C)(C)C)C(=O)N[C@@H](Cc2c[nH]cn2)C(=O)N[C@@H](CC2CCCCC2)[C@@H](O)CS(=O)(=O)C(C)C)cc1
Pepsin A (Sus scrofa) [1]
  inhibition: 0%
Renin
  IC50: 3 nM
Cathepsin D (Bos taurus) [2]
  inhibition: 0%

## CCOC(=O)N[C@H](C(=O)N[C@@H](Cc1c[nH]cn1)C(=O)N[C@@H](CC1CCCCC1)[C@@H](O)CS(=O)(=O)C(C)C)[C@@H](C)OCc1ccccc1
Renin
  IC50: 20 nM

## CC(C)S(=O)(=O)C[C@H](O)[C@H](CC1CCCCC1)NC(=O)[C@H](CCCNC(=O)OCc1ccccc1)NC(=O)[C@H](Cc1ccccc1)NC(=O)OC(C)(C)C
Renin
  IC50: 60 nM

## CC(C)(C)OC(=O)N[C@@H](Cc1ccccc1)C(=O)N[C@@H](Cc1c[nH]cn1)C(=O)N[C@@H](CC1CCCCC1)[C@H](O)CSC1CCCCC1
Renin
  IC50: 100 nM

## CC(C)C(=O)N[C@H](C(=O)N[C@@H](Cc1c[nH]cn1)C(=O)N[C@@H](CC1CCCCC1)[C@@H](O)CS(=O)(=O)C(C)C)[C@@H](C)OCc1ccccc1
Renin
  IC50: 10 nM

## CC(C)S(=O)(=O)C[C@H](O)[C@H](CC1CCCCC1)NC(=O)[C@H](CCCN)NC(=O)[C@H](Cc1ccccc1)NC(=O)OC(C)(C)C
Renin (Homo sapiens) [3]
  inhibition: 43%

## CC(C)S(=O)(=O)C[C@H](O)[C@H](CC1CCCCC1)NC(=O)[C@H](CCCCNC(=O)OCc1ccccc1)NC(=O)[C@H](Cc1ccccc1)NC(=O)OC(C)(C)C
Renin
  IC50: 100 nM

## O=C(COc1ccccc1)NC(Cc1c[nH]cn1)C(=O)N[C@@H](CC1CCCCC1)[C@@H](O)CSC1CCCCC1 (stereo not given in full)
Renin
  IC50: 430 nM

## CC(C)S(=O)(=O)C[C@H](O)[C@H](CC1CCCCC1)NC(=O)[C@H](C)NC(=O)[C@H](Cc1ccccc1)NC(=O)OC(C)(C)C
Pepsin A (Sus scrofa) [1]
  inhibition: 0%
Renin
  IC50: 70 nM
Cathepsin D (Bos taurus) [2]
  inhibition: 55%

## CC(C)S(=O)(=O)C[C@H](O)[C@H](CC1CCCCC1)NC(=O)[C@H](CCCCN)NC(=O)[C@H](Cc1ccccc1)NC(=O)OC(C)(C)C
Renin (Homo sapiens) [3]
  inhibition: 34%

## CC(C)SC[C@H](O)[C@H](CC1CCCCC1)NC(=O)[C@H](Cc1c[nH]cn1)NC(=O)[C@H](Cc1ccccc1)NC(=O)OC(C)(C)C
Renin
  IC50: 4 nM
Cathepsin D (Bos taurus) [4]
  inhibition: 0%
Pepsin A (Sus scrofa) [5]
  inhibition: 0%

## CC(C)S(=O)(=O)C[C@H](O)[C@H](CC1CCCCC1)NC(=O)[C@H](Cc1c[nH]cn1)NC(=O)[C@@H](NC(=O)OC(C)(C)C)[C@@H](C)OCc1ccccc1
Pepsin A (Sus scrofa) [1]
  inhibition: 0%
Renin
  IC50: 5.5 nM
Cathepsin D (Bos taurus) [2]
  inhibition: 0%

## CC(C)S(=O)(=O)C[C@H](O)[C@H](CC1CCCCC1)NC(=O)[C@H](Cc1c[nH]cn1)NC(=O)[C@H](Cc1ccccc1)NC(=O)CC(C)(C)C [listing 1 of 3 here]
Renin
  IC50: 3.5 nM

## CC(C)CC(NC(=O)C(Cc1ccccc1)Cc1ccccc1)C(=O)N[C@@H](CC1CCCCC1)[C@@H](O)CS(=O)(=O)C(C)C (stereo not given in full)
Renin
  IC50: 25 nM

## CC(C)S(=O)(=O)C[C@H](O)[C@H](CC1CCCCC1)NC(=O)[C@H](Cc1ccccc1)NC(=O)[C@H](Cc1ccccc1)NC(=O)OC(C)(C)C
Pepsin A (Sus scrofa) [1]
  inhibition: 4%
Renin
  IC50: 30 nM
Cathepsin D (Bos taurus) [2]
  inhibition: 0%

## CC(C)S(=O)(=O)C[C@H](O)[C@H](CC1CCCCC1)NC(=O)[C@H](Cc1c[nH]cn1)NC(=O)[C@H](Cc1ccccc1)NC(=O)CC(C)(C)C [listing 2 of 3 here]
Renin
  IC50: 3 nM

## CC(C)(C)OC(=O)N[C@@H](Cc1ccccc1)C(=O)N[C@@H](Cc1c[nH]cn1)C(=O)N[C@@H](Cc1ccccc1)[C@@H](O)CSC1CCCCC1
Pepsin A (Sus scrofa) [1]
  inhibition: 4%
Renin
  IC50: 15 nM
Cathepsin D (Bos taurus) [2]
  inhibition: 0%

## CC(C)S(=O)(=O)C[C@H](O)[C@H](CC1CCCCC1)NC(=O)[C@@H](NC(=O)[C@H](Cc1ccccc1)NC(=O)OC(C)(C)C)[C@@H](C)OCc1ccccc1
Pepsin A (Sus scrofa) [1]
  inhibition: 18%
Renin
  IC50: 6 nM
Cathepsin D (Bos taurus) [2]
  inhibition: 95%

## CSC[C@H](O)[C@H](CC1CCCCC1)NC(=O)[C@H](Cc1c[nH]cn1)NC(=O)[C@H](Cc1ccccc1)NC(=O)OC(C)(C)C
Renin
  IC50: 10 nM

## CC(C)S(=O)(=O)C[C@H](O)[C@H](CC1CCCCC1)NC(=O)C(Cc1c[nH]cn1)NC(=O)C(Cc1ccccc1)Cc1ccccc1 (stereo not given in full)
Pepsin A (Sus scrofa) [1]
  inhibition: 0%
Cathepsin D (Bos taurus) [2]
  inhibition: 0%

## CC(C)S(=O)(=O)C[C@H](O)[C@H](CC1CCCCC1)NC(=O)[C@H](Cc1c[nH]cn1)NC(=O)[C@H](Cc1ccccc1)NC(=O)OC(C)(C)C
Pepsin A (Sus scrofa) [1]
  inhibition: 0%
Renin
  IC50: 2 nM
Cathepsin D (Bos taurus) [2]
  inhibition: 0%

## CC(C)(C)OC(=O)N[C@@H](Cc1ccccc1)C(=O)N[C@@H](Cc1c[nH]cn1)C(=O)N[C@@H](CC1CCCCC1)[C@@H](O)CSC1CCCCC1
Renin
  IC50: 4 nM
Cathepsin D (Bos taurus) [4]
  inhibition: 0%
Pepsin A (Sus scrofa) [5]
  inhibition: 9%

## CC(=O)NCCCC[C@H](NC(=O)[C@H](Cc1ccccc1)NC(=O)OC(C)(C)C)C(=O)N[C@@H](CC1CCCCC1)[C@@H](O)CS(=O)(=O)C(C)C
Renin
  IC50: 300 nM

## CC(C)SC[C@H](O)[C@H](CC1CCCCC1)NC(=O)[C@H](C)NC(=O)[C@H](Cc1ccccc1)NC(=O)OC(C)(C)C
Renin
  IC50: 9.9 nM

## CC(C)(C)OC(=O)NC(Cc1c[nH]cn1)C(=O)N[C@@H](CC1CCCCC1)[C@@H](O)CS(=O)(=O)C1CCCCC1 (stereo not given in full)
Renin (Homo sapiens) [6]
  inhibition: 5%

## O=C(NC(Cc1cnc[nH]1)C(=O)N[C@@H](CC1CCCCC1)[C@@H](O)CSC1CCCCC1)C(Cc1ccccc1)Cc1ccccc1 (stereo not given in full)
Renin
  IC50: 20 nM

## CC(C)S(=O)(=O)C[C@H](O)[C@H](CC1CCCCC1)NC(=O)[C@H](CCO)NC(=O)[C@H](Cc1ccccc1)NC(=O)OC(C)(C)C
Renin
  IC50: 20 nM

## CCOC(=O)N[C@@H](Cc1ccccc1)C(=O)N[C@@H](Cc1c[nH]cn1)C(=O)N[C@@H](CC1CCCCC1)[C@@H](O)CS(=O)(=O)C(C)C
Renin
  IC50: 5 nM

## CC(C)S(=O)(=O)C[C@H](O)[C@H](CC1CCCCC1)NC(=O)[C@H](CO)NC(=O)[C@H](Cc1ccccc1)NC(=O)OC(C)(C)C
Pepsin A (Sus scrofa) [1]
  inhibition: 0%
Renin
  IC50: 40 nM
Cathepsin D (Bos taurus) [2]
  inhibition: 47%

## CC(C)CSC[C@H](O)[C@H](CC1CCCCC1)NC(=O)[C@H](Cc1c[nH]cn1)NC(=O)[C@H](Cc1ccccc1)NC(=O)OC(C)(C)C
Renin
  IC50: 6.5 nM

## CC(C)S(=O)(=O)C[C@H](O)[C@H](CC1CCCCC1)NC(=O)C(Cc1cnc[nH]1)NC(=O)C(Cc1ccccc1)Cc1ccccc1 (stereo not given in full)
Renin
  IC50: 70 nM

## O=C(NC(Cc1c[nH]cn1)C(=O)N[C@@H](CC1CCCCC1)[C@@H](O)CSC1CCCCC1)C(Cc1ccccc1)Cc1ccccc1 (stereo not given in full)
Pepsin A (Sus scrofa) [1]
  inhibition: 0%
Cathepsin D (Bos taurus) [2]
  inhibition: 0%

## CC(C)S(=O)(=O)C[C@H](O)[C@H](CC1CCCCC1)NC(=O)[C@H](Cc1c[nH]cn1)NC(=O)[C@H](COCc1ccccc1)NC(=O)OC(C)(C)C
Renin
  IC50: 75 nM

## CC(C)S(=O)(=O)C[C@H](O)[C@H](CC1CCCCC1)NC(=O)[C@@H](NC(=O)[C@H](Cc1ccccc1)NC(=O)OC(C)(C)C)[C@@H](C)O
Renin
  IC50: 8 nM

## CC(C)S(=O)(=O)C[C@H](O)[C@H](CC1CCCCC1)NC(=O)[C@H](Cc1c[nH]cn1)NC(=O)[C@@H](N)[C@@H](C)OCc1ccccc1
Renin
  IC50: 300 nM

## CC(C)S(=O)(=O)C[C@H](O)[C@H](CC1CCCCC1)NC(=O)C(Cc1c[nH]cn1)NC(=O)[C@@H](Cc1ccccc1)NC(=O)OC(C)(C)C (stereo not given in full)
Pepsin A (Sus scrofa) [1]
  inhibition: 0%
Renin
  IC50: 150 nM
Cathepsin D (Bos taurus) [2]
  inhibition: 0%

## O=C(NC(Cc1cnc[nH]1)C(=O)N[C@@H](CC1CCCCC1)[C@@H](O)CS(=O)(=O)C1CCCCC1)C(Cc1ccccc1)Cc1ccccc1 (stereo not given in full)
Renin
  IC50: 40 nM

## CC(C)(C)OC(=O)N[C@@H](Cc1ccccc1)C(=O)N[C@@H](Cc1c[nH]cn1)C(=O)N[C@@H](CC1CCCCC1)[C@@H](O)CS(C)(=O)=O
Renin
  IC50: 40 nM

## CC(C)S(=O)(=O)C[C@H](O)[C@H](CC1CCCCC1)NC(=O)[C@H](Cc1c[nH]cn1)NC(=O)[C@H](Cc1ccccc1)NC(=O)CC(C)(C)C [listing 3 of 3 here]
Pepsin A (Sus scrofa) [1]
  inhibition: 0%
Cathepsin D (Bos taurus) [2]
  inhibition: 0%
